Experimental findings from ChEMBL document CHEMBL2010730, “An example of designed multiple ligands spanning protein classes: dual MCH-1R antagonists/DPPIV inhibitors” (Bioorg Med Chem Lett, 2012) are described below.

Usually pIC50 stands for the IC50 on a negative log10 scale, so that one unit is a factor of ten. Usually inhibition stands for the relative decrease from the control value, in per cent. For orientation: pKi means −log10 of the Ki, conventionally taken in molar units. One may read the logD as lipophilicity at a set pH, counting ionised and neutral species.

pIC50, pKi: −log10 of the molar value.

In series [1] the target is T1, Dipeptidyl peptidase 4 (Homo sapiens, UniProt P27487). Nature of the series: Inhibition of human recombinant DPP4 using H-Gly-Pro-7-amino-4-methylcoumarin as substrate assessed as inhibition of 7-amino-4-methylcoumarin formation after 30 mins by fluorimetry.
For series [2], the target named is T2, Melanin-concentrating hormone receptor 1 (Homo sapiens, UniProt Q99705). Nature of the series: Antagonist activity at human MCH1R expressed in CHO cells assessed as inhibition of MCH-induced response. The class given is functional, cell-based.
Another series concerns the target Dipeptidyl peptidase 8 (Homo sapiens, UniProt Q6V1X1). Nature of the series: Inhibition of DPP8.
In the next series the target is Dipeptidyl peptidase 9 (Homo sapiens, UniProt Q86TI2). The series can be described thus: Inhibition of DPP9.
The target of series [3] is T2, Melanin-concentrating hormone receptor 1. Nature of the series: Antagonist activity at human MCH1R expressed in CHO cells assessed as inhibition of MCH-induced response at 5 uM. The class given is functional, cell-based.
For series [4], the target named is T1, Dipeptidyl peptidase 4. Nature of the series: Inhibition of DPP4.
Series [5] has as its target T2, Melanin-concentrating hormone receptor 1. The series can be described thus: Antagonist activity at human MCH1R expressed in forskolin-stimulated CHO cells assessed as inhibition of MCH-induced cAMP accumulation after 90 mins. The class given is functional, cell-based.
Series [6] is described as follows: Lipophilicity, log D of the compound at pH 7.4. Format: physicochemical. The following applies: buffer.
The target of series [7] is Voltage-gated inwardly rectifying potassium channel KCNH2 (Homo sapiens, UniProt Q12809).
Chain of Voltage-gated inwardly rectifying potassium channel KCNH2 (Q12809 whole entry): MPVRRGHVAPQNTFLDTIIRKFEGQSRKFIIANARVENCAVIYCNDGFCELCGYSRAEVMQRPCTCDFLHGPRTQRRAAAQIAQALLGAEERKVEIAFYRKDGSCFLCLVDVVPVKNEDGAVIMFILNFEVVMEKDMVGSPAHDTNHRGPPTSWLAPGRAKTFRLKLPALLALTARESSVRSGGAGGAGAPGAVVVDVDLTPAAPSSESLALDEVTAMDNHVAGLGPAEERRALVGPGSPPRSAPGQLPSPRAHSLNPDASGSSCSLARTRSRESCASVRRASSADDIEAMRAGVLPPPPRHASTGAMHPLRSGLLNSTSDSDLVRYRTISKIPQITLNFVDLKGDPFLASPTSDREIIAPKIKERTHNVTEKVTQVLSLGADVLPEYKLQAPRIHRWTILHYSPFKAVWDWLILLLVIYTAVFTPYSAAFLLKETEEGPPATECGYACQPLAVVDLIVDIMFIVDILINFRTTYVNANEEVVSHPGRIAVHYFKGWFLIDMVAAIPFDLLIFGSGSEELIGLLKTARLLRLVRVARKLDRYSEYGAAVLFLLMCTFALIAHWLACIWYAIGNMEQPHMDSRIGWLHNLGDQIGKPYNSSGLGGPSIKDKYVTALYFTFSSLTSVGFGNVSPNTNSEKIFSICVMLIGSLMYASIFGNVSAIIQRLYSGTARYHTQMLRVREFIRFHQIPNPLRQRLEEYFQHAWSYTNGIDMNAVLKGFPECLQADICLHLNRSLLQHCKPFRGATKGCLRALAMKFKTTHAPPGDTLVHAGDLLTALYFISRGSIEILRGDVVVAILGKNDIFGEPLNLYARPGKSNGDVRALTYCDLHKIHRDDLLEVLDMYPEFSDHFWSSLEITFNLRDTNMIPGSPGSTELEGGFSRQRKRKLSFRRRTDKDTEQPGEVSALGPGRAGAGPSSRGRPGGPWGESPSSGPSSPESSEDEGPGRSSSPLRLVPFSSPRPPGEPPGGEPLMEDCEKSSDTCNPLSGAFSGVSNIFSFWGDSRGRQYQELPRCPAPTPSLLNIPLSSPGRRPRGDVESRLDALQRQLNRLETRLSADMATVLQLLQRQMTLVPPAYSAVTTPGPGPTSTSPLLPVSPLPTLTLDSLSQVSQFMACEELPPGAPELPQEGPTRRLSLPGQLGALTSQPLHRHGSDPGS

T1 sequence (P27487 whole entry): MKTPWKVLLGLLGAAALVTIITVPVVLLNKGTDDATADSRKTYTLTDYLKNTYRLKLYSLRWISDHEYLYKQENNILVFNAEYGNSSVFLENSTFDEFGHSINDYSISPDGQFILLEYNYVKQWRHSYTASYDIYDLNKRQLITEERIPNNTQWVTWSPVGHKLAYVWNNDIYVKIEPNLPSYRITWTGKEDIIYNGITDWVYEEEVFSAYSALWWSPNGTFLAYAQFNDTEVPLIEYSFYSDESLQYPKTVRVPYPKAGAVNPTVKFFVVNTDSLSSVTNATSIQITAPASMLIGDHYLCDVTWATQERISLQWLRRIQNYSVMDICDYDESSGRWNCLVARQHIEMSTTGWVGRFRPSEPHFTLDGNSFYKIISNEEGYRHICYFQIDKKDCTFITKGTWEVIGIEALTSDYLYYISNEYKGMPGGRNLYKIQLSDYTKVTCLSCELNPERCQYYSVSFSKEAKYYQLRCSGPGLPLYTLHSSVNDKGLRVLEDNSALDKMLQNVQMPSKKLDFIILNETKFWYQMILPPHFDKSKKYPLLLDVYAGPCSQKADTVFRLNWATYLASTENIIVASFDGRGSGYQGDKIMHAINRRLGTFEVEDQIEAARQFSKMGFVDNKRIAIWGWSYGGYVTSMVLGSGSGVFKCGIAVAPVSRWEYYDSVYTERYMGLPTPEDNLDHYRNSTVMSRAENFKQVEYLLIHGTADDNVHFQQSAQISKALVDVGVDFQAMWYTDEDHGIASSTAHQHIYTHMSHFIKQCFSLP
T2 sequence (Q99705 whole entry): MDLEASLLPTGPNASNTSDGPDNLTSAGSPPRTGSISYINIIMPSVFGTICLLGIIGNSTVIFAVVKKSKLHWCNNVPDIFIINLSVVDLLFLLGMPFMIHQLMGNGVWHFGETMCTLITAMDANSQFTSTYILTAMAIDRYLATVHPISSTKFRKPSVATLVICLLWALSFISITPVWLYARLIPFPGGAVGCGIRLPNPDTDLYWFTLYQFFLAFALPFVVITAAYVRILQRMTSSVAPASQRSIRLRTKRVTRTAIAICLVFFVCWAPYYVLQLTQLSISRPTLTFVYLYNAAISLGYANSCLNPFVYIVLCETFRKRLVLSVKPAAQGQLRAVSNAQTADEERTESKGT
Chain of Dipeptidyl peptidase 9 (Q86TI2 whole entry): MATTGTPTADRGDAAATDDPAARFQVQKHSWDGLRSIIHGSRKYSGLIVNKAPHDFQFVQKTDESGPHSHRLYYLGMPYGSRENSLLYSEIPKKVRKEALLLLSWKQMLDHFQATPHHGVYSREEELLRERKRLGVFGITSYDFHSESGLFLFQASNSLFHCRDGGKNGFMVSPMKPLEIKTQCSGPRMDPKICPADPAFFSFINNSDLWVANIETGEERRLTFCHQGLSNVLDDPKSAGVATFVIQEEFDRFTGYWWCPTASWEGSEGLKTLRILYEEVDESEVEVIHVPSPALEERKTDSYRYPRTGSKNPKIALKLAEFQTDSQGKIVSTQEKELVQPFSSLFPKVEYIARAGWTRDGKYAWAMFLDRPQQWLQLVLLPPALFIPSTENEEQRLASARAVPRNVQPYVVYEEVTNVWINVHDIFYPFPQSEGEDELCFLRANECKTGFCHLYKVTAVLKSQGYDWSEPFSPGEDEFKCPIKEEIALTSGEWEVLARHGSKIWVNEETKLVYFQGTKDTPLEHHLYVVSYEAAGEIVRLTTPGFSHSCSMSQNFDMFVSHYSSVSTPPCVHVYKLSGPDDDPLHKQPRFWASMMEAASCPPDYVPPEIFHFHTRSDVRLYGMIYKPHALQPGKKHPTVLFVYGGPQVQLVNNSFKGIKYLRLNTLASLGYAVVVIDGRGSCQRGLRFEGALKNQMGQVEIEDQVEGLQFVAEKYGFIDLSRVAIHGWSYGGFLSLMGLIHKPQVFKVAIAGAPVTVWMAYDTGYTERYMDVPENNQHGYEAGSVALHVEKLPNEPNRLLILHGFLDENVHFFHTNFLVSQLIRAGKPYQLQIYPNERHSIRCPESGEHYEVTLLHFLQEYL
Chain of Dipeptidyl peptidase 8 (Q6V1X1 whole entry): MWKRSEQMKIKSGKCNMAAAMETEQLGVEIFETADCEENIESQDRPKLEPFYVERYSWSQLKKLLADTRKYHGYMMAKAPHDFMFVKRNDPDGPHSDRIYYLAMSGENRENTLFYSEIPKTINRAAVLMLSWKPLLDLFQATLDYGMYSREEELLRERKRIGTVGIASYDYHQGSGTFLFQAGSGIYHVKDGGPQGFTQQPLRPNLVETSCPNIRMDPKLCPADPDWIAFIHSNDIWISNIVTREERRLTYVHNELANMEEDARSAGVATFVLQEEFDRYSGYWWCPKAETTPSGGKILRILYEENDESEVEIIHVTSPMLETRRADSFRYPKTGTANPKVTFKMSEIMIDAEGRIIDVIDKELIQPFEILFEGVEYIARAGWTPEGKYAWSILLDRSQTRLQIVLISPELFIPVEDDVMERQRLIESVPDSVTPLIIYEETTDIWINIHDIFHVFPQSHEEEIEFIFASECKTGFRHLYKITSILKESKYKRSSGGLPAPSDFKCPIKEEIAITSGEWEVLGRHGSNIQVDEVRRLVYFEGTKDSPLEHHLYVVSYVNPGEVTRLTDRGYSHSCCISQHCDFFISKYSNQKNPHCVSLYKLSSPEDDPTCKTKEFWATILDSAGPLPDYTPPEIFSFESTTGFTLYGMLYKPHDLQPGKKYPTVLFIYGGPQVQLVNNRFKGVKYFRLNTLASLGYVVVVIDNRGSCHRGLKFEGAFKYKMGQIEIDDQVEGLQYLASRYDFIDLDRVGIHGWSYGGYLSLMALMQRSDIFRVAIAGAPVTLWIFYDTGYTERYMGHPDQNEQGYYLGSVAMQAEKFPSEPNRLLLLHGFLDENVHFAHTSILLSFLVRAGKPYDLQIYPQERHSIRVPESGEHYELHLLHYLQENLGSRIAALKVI

Regarding `N[C@H]1CN(c2ccc(-n3ccc(OCc4ccccc4)cc3=O)cn2)CC[C@@H]1c1cc(F)c(F)cc1F`, the pIC50 on Dipeptidyl peptidase 4 [1] is 6.46; in series [2], 6.36; against Dipeptidyl peptidase 8, below 4.30; at Dipeptidyl peptidase 9, below 4.30.

Take `N[C@H]1CN(c2ccc(-n3ccc(-c4ccccc4)cc3=O)cn2)C[C@@H]1c1cc(F)ccc1F`: in series [3], the inhibition is 39%.

In the case of `CC(C)COc1ccc(CC(=O)Nc2ccc(N3C[C@H](c4cc(F)ccc4F)[C@@H](N)C3)nc2)cc1`, the inhibition in [3] turned out to be 35%.

In turn, `N[C@H]1CN(c2cc(-c3ccccc3)ncn2)CC[C@@H]1c1cc(F)c(F)cc1F` had a pKi at Dipeptidyl peptidase 4 [4] of 8.22.

For `N[C@@H]1CCN(c2ccc(-n3ccc(OCc4ccccc4)cc3=O)cn2)C1`, the pIC50 on Dipeptidyl peptidase 4 [1] is below 4.00; in series [2], 7.70; against Dipeptidyl peptidase 8, below 4.00; on Dipeptidyl peptidase 9, below 4.00. For the same compound, the pKi in [5] is 8.22.

Consider `N[C@H]1CN(c2ccc(-n3ccc(OCc4ccccc4)cc3=O)cn2)C[C@@H]1c1cc(F)ccc1F`, for which the values for the negative-log IC50 (pIC50) (at Dipeptidyl peptidase 4 [1]; in series [2]) were 5.78 and 6.85, respectively. For the same compound, in [3], the inhibition was determined as 104%.

For the compound `CCCCOc1ccc2c(c1)CCN(c1ccc(N3C[C@H](c4cc(F)ccc4F)[C@@H](N)C3)nc1)C2=O`, the pIC50 in series [2] is 5.40. Moreover, the inhibition in [3] came out at 44%.

In the case of `N[C@H]1CN(c2ccc(CCNC(=O)c3ccc(OCC4CC4)cc3)cn2)C[C@@H]1c1cc(F)ccc1F`, the negative logarithm of the IC50 (pIC50) in [2] was 5.42. For the same compound, the inhibition in series [3] turned out to be 43%.

As for `N[C@H]1CN(c2ccc(-n3ccc(OCc4ccccc4)cc3=O)cn2)C[C@@H]1c1cc(F)c(F)cc1F`, the logD in series [6] came out at 3.4. The results for the pIC50 (in series [7]; on Dipeptidyl peptidase 4 [1]; in series [2]) were 5.21, 5.96 and 6.96, respectively.

As to `N[C@H]1CN(c2ccc(-n3ccnc(CCCc4ccccc4)c3=O)cn2)C[C@@H]1c1cc(F)ccc1F`, the pIC50 in series [2] is below 5.52. Besides, the inhibition in series [3] is 52%.
